Assay results: patent publication US8173645B2 (Takeda San Diego, Inc., priority 2007, dated 2012)

Target: T1, glucokinase (GK), residues 12-465 of the human enzyme (Homo sapiens, UniProt P35557)
T1 construct: I.D. No. 1 corresponds to residues 12-465 of glucokinase; made in house; host or cells: E. coli DH10b-Tlr
T1 sequence (P35557 with tags, fused parts or gaps isoform P35557-2): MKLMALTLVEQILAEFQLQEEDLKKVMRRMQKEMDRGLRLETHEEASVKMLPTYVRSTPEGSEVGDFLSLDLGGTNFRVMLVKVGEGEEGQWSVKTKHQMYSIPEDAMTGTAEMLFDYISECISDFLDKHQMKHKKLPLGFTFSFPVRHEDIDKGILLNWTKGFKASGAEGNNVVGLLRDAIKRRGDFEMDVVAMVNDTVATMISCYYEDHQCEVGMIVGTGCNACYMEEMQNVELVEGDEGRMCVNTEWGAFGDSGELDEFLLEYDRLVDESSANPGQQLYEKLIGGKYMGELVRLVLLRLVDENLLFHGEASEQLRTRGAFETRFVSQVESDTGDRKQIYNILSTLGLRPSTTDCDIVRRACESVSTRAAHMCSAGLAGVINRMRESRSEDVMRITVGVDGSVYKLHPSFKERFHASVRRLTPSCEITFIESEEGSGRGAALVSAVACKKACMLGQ
Experiment: Enzymatic glucokinase activity assay (KinaseGlo luminescence, ATP consumption)
Assay type: biochemical
Settings: 5 μM ATP, 5 mM Glucose; for EC50: GK activation, Kact = concentration giving 50% of the maximal increase in GK activity, read-out: pKact; for Emax: calculated maximal gain in GK enzyme activity at a saturating concentration of the compound, read-out: % ACTmax
Summary of the method: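 Activation measured as ATP consumption: residual ATP detected by KinaseGlo luminescence after 60 min at room temperature with 5 μM ATP and 5 mM glucose (Hepes pH 7.2, MgCl2, Brij35, DTT, 2% DMSO). Enzyme was recombinant FLAG-tagged protein from E. coli. Eleven-point twofold series were fitted nonlinearly for pKact and % ACTmax.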

Structure (SMILES) | EC50 | Emax
Cc1cc(F)ccc1S(=O)(=O)N1CCN([C@@H](CC2CCCCC2)C(=O)Nc2nccs2)C(=O)C1 [Example 223, (S)-3-cyclohexyl-2-(4-(4-fluoro-2-methylphenylsulfonyl)-2-oxopiperazin-1-yl)-N-(thiazol-2-yl)propanamide] | 1580 to 2510 nM | 97.1 to 107%
O=C(Nc1ncc(F)s1)[C@H](CC1CCOCC1)N1CCN(S(=O)(=O)c2cccc(F)c2)CC1=O [Example 152, (S)-2-(4-(3-fluorophenylsulfonyl)-2-oxopiperazin-1-yl)-N-(5-fluorothiazol-2-yl)-3-(tetrahydro-2H-pyran-4-yl)propanamide] | ≤ 631 nM | ≥ 119%
O=C(Nc1nccs1)[C@H](CC1CCCCC1)N1CCN(C(=O)Nc2ccc3sccc3c2)CC1=O [Example 144, (S)-N-(benzo[b]thiophen-5-yl)-4-(3-cyclohexyl-1-oxo-1-(thiazol-2-ylamino)propan-2-yl)-3-oxopiperazine-1-carboxamide] | ≥ 3160 nM | ≤ 74%
Cc1c(Cl)cccc1S(=O)(=O)N1CCN([C@@H](CC2CCCCC2)C(=O)Nc2nccs2)C(=O)C1 [Example 51, (S)-2-(4-(3-chloro-2-methylphenylsulfonyl)-2-oxopiperazin-1-yl)-3-cyclohexyl-N-(thiazol-2-yl)propanamide] | 1580 to 2510 nM | 74.1 to 97%
CCN(CC)CCCNC(=S)N1CCN([C@@H](CC2CCCCC2)C(=O)Nc2nccs2)C(=O)C1 [Example 133, (S)-3-cyclohexyl-2-(4-(3-(diethylamino)propylcarbamothioyl)-2-oxopiperazin-1-yl)-N-(thiazol-2-yl)propanamide] | 794 to 1260 nM | 97.1 to 107%
O=C(Nc1nccs1)[C@H](CC1CCCCC1)N1CCN(S(=O)(=O)c2ccc(-c3nsc(Cl)n3)s2)CC1=O [Example 165, (S)-2-(4-(5-(5-chloro-1,2,4-thiadiazol-3-yl)thiophen-2-ylsulfonyl)-2-oxopiperazin-1-yl)-3-cyclohexyl-N-(thiazol-2-yl)propanamide] | 794 to 1260 nM | ≤ 74%
COC(=O)c1cc(C)c(S(=O)(=O)N2CCN([C@@H](CC3CCCCC3)C(=O)Nc3nccs3)C(=O)C2)s1 [Example 157, (S)-methyl 5-(4-(3-cyclohexyl-1-oxo-1-(thiazol-2-ylamino)propan-2-yl)-3-oxopiperazin-1-ylsulfonyl)-4-methylthiophene-2-carboxylate] | 1580 to 2510 nM | ≤ 74%
O=C(Nc1nccs1)[C@H](CC1CCCCC1)N1CCN(S(=O)(=O)CCc2ccc(Cl)cc2)CC1=O [Example 98, (S)-2-(4-(4-chlorophenethylsulfonyl)-2-oxopiperazin-1-yl)-3-cyclohexyl-N-(thiazol-2-yl)propanamide] | 794 to 1260 nM | ≤ 74%
COc1ccc(C)cc1S(=O)(=O)N1CCN([C@@H](CC2CCCCC2)C(=O)Nc2nccs2)C(=O)C1 [Example 95, (S)-3-cyclohexyl-2-(4-(2-methoxy-5-methylphenylsulfonyl)-2-oxopiperazin-1-yl)-N-(thiazol-2-yl)propanamide] | 794 to 1260 nM | ≥ 119%
O=C(Nc1nccs1)[C@H](CC1CCCCC1)N1CCN(C(=S)Nc2ccc(C(F)(F)F)cc2)CC1=O [Example 85, (S)-3-cyclohexyl-2-(2-oxo-4-(4-(trifluoromethyl)phenylcarbamothioyl)piperazin-1-yl)-N-(thiazol-2-yl)propanamide] | ≥ 3160 nM | ≤ 74%
O=C(Nc1nccs1)[C@H](CC1CCCCC1)N1CCN(S(=O)(=O)c2ccc3c(c2)CCO3)CC1=O [Example 102, (S)-3-cyclohexyl-2-(4-(2,3-dihydrobenzofuran-5-ylsulfonyl)-2-oxopiperazin-1-yl)-N-(thiazol-2-yl)propanamide] | 794 to 1260 nM | 74.1 to 97%
O=C(Nc1nccs1)[C@H](CC1CCCCC1)N1CCN(C(=S)NCCCN2CCOCC2)CC1=O [Example 118, (S)-3-cyclohexyl-2-(4-(3-morpholinopropylcarbamothioyl)-2-oxopiperazin-1-yl)-N-(thiazol-2-yl)propanamide] | 1580 to 2510 nM | 97.1 to 107%
COc1cccc(C[C@@H](C(=O)Nc2nccs2)N2CCN(S(=O)(=O)C3CC3)CC2=O)c1 [Example 4, (S)-2-(4-(cyclopropylsulfonyl)-2-oxopiperazin-1-yl)-3-(3-methoxyphenyl)-N-(thiazol-2-yl)propanamide] | 1580 to 2510 nM | 74.1 to 97%
COc1ccc(S(=O)(=O)N2CCN([C@@H](CC3CCCCC3)C(=O)Nc3nccs3)C(=O)C2)cc1 [Example 46, (S)-3-cyclohexyl-2-(4-(4-methoxyphenylsulfonyl)-2-oxopiperazin-1-yl)-N-(thiazol-2-yl)propanamide] | 794 to 1260 nM | 97.1 to 107%
O=C(Nc1nccs1)[C@H](CC1CCCCC1)N1CCN(S(=O)(=O)Cc2ccccc2)CC1=O [Example 41, (S)-2-(4-(benzylsulfonyl)-2-oxopiperazin-1-yl)-3-cyclohexyl-N-(thiazol-2-yl)propanamide] | ≤ 631 nM | 97.1 to 107%
Cc1cc(S(=O)(=O)N2CCN([C@@H](CC3CCCCC3)C(=O)Nc3nccs3)C(=O)C2)c(C)s1 [Example 180, (S)-3-cyclohexyl-2-(4-(2,5-dimethylthiophen-3-ylsulfonyl)-2-oxopiperazin-1-yl)-N-(thiazol-2-yl)propanamide] | ≤ 631 nM | 108 to 119%
O=C(Nc1nccs1)[C@H](CC1CCCCC1)N1CCN(C(=S)Nc2ccc(F)cc2)CC1=O [Example 83, (S)-3-cyclohexyl-2-(4-(4-fluorophenylcarbamothioyl)-2-oxopiperazin-1-yl)N-(thiazol-2-yl)propanamide] | ≥ 3160 nM | 108 to 119%
O=C(Nc1nccs1)[C@H](CC1CCCCC1)N1CCN(C(=S)Nc2ccc(OC(F)F)cc2)CC1=O [Example 135, (S)-3-cyclohexyl-2-(4-(4-(difluoromethoxy)phenylcarbamothioyl)-2-oxopiperazin-1-yl)-N-(thiazol-2-yl)propanamide] | ≥ 3160 nM | 97.1 to 107%
CC(=O)Nc1ccc(S(=O)(=O)N2CCN([C@@H](CC3CCCCC3)C(=O)Nc3nccs3)C(=O)C2)cc1 [Example 45, (S)-2-(4-(4-acetamidophenylsulfonyl)-2-oxopiperazin-1-yl)-3-cyclohexyl-N-(thiazol-2-yl)propanamide] | ≥ 3160 nM | 97.1 to 107%
Cc1ccc(S(=O)(=O)N2CCN([C@@H](CC3CCCCC3)C(=O)Nc3nccs3)C(=O)C2)c(F)c1 [Example 222, (S)-3-cyclohexyl-2-(4-(2-fluoro-4-methylphenylsulfonyl)-2-oxopiperazin-1-yl)-N-(thiazol-2-yl)propanamide] | ≤ 631 nM | 108 to 119%
CC(=O)c1ccc(S(=O)(=O)N2CCN([C@@H](CC3CCCCC3)C(=O)Nc3nccs3)C(=O)C2)cc1 [Example 206] | ≥ 3160 nM | 74.1 to 97%
Cc1ccccc1S(=O)(=O)N1CCN([C@@H](CC2CCCCC2)C(=O)Nc2nccs2)C(=O)C1 [Example 218, (S)-3-cyclohexyl-2-(2-oxo-4-(o-tolylsulfonyl)piperazin-1-yl)-N-(thiazol-2-yl)propanamide] | 794 to 1260 nM | 108 to 119%
O=C(Nc1ncc(Cl)s1)C(CC1CCOCC1)N1CCN(S(=O)(=O)c2cccs2)CC1=O (stereo not shown) [Example 36, N-(5-chlorothiazol-2-yl)-2-(2-oxo-4-(thiophen-2-ylsulfonyl)piperazin-1-yl)-3-(tetrahydro-2H-pyran-4-yl)propanamide] | ≤ 631 nM | 108 to 119%
